These are literature values, as cited in patent publication US20020004489A1, “Retinoid receptor interacting polynucleotides, polypeptides, and antibodies” (priority 1999, published 2002).

In data set [1] the test system is viruses containing the K103N mutation.
For data set [2] the following is noted: deletion of 8-10 C-terminal residues, versus undeleted protein.
Data set [3] deals with protease inhibitor-resistant viruses.
Data set [4] has as its system lamivudine-resistant isolates.

For the compound `Nc1nc(=O)n([C@H]2C=C[C@@H](CO)O2)cc1F` [DD4FC], in the data set with AZT/3TC-resistant virus, the “activity against AZT/3TC-resistant virus” value is on record as “activity against AZT/3TC-resistant virus”. `CC[C@H]1C(=O)Nc2ccc(F)cc2N1C(=O)OC(C)C` [GW-420867X]: the “activity relative to HBY097” value in the data set with HIV (greater activity than HBY097) is given as 25 fold. Besides, the “activity against K103N mutants” value in data set [1] is given as “active against K103N mutants”. `CC(C)c1nc(COC(N)=O)n(Cc2ccncc2)c1Sc1cc(Cl)cc(Cl)c1` [CAPRAVIRINE]: the “activity against K103N mutants” value in data set [1] is given as “activity against viruses containing the K103N mutation”.

Interferon gamma: in data set [2], the “activity after deleting 8-10 amino acid residues from the carboxy terminus” value is recorded as “up to ten times higher activity”. With `Cc1ccccc1CNC(=O)[C@H]1N(C(=O)[C@@H](O)[C@H](Cc2ccccc2)NC(=O)c2cccc(O)c2C)CSC1(C)C` [AG-1776], the “in vitro activity against protease inhibitor-resistant viruses” value in data set [3] is on record as “in vitro activity against protease inhibitor-resistant viruses”.

`Nc1ccn([C@H]2CO[C@@H](CO)S2)c(=O)n1` [dOTC]: the “activity against lamivudine-resistant isolates” value in data set [4] was “retains activity against a substantial proportion of lamivudine-resistant isolates”. In the case of `Nc1nc(=O)n([C@@H]2CS[C@H](CO)O2)cc1F` [COVIRACIL, emtricitabine], in the data set with HIV (in vitro, greater activity than lamivudine (3TC)), the “activity in vitro relative to lamivudine (3TC)” value is 3- to 10 fold. As for `C[C@H](Sc1nc(N)cc(Cl)n1)c1cc2ccoc2cn1` [PNU-142721], the “activity relative to its predecessor delavirdine” value in the data set on HIV (greater activity than delavirdine) is on record as 20- to 50 fold. In data set [1], the “activity against K103N mutants” value is listed as “active against K103N mutants”.
